# Key:
# [1] = molecular target: T1, EED protein (His6-tagged full-length) binding to H3K27me3 polypeptide (Homo sapiens, UniProt O75530); test: AlphaScreen evaluation of blocking the binding of EED to H3K27Me3; conditions: EED 60 nM, biotinylated H3K27me3 75 nM, 30 minutes incubation
# T1 construct: His6-tagged full-length EED protein (441 amino acids)
# Description: Firstly, compound solutions of different concentration gradients were prepared. Compound powder was dissolved in DMSO to prepare a mother liquor. 1.5 μl of the mother liquor of the compound was taken and added into 198.5 μl of a reaction buffer (25 mM HEPES (pH 8.0), 50 mM NaCl, 0.015% Tween 20, 0.5% BSA). The mixture was mixed uniformly. Then a 3-fold series dilution was carried out with the above-mentioned buffer containing 0.75% DMSO. 9 different test concentrations were provided for one same compound. 5 μL of compounds of different concentration gradients were taken and added into the ProxiPlate-384 Plus, White detection plate (PerkinElmer, 6008280) and two replicates in parallel were provided for each concentration gradient.
# Secondly, a reaction for blocking the binding was carried out. The above-mentioned buffer was used to dilute His6-tagged full-length EED protein (441 amino acids) to 60 nM and biotinylated polypeptide fragment H3K27me3 (amino acids at positions 19-33) (Biotinylated-H3K27me3) to 75 nM. 5 μl of the polypeptide fragment at the concentration of 75 nM and 5 µl of the protein at the concentration of 60 nM were transferred to the detection wells containing the compound, respectively. The detection plate was sealed with the film and incubation was carried out at room temperature for 30 minutes.
# Finally, the detection was carried out with the AlphaScreen method. Prior use, nickel chelate receptor beads and streptavidin donor beads (at the ratio of 1:1, Perkin Elmer, product number 6760619M) were mixed with the above-mentioned reaction buffer. Then 5 μl of the above-mentioned pre-mixed detection solution was added to each of the detection wells. The donor beads and receptor beads were both at a final concentration of 5 μg/mL. The detection plate was covered and sealed with tinfoil and placed in the dark at room temperature for 1 hour. The signal was read using the AlphaScreen detector on the Spectra max i3. AlphaScreen signals were standardlized based on the readings obtained from positive controls (maximum signal controls) and negative controls (minimum signal controls) to give the inhibition rates for compounds at different concentrations, and afterwards non-linear regression analysis was carried out using GraphPad Prism 5, inhibition curves were made based on the Dose-Response equation of Y=Bottom+(Top−Bottom)/(1+10^((Log IC50−X)*HillSlope)) and the IC50 values of each compound were obtained. […]
# [2] = test system: trimethylation level of histone H3K27 in G401 cells; test: ELISA (H3K27 trimethylation) analysis in G401 cells; assay type: cell-based; conditions: Homo sapiens, G-401, 72 hours, H3K27me3 standardized to H3
# Method in brief: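 Cells exposed 72 h to 10-point 3-fold dilutions, top 10 μM, 0.5% final DMSO. Acid-extracted histones assayed by ELISA (ECL) for H3K27me3, normalized to total H3 and to DMSO control; IC50 from dose-response fit.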
# [3] = test system: KARPAS-422 cells; test: Cell proliferation analysis, KARPAS-422, 13 days, CellTiter-Glo; assay type: cell-based; conditions: Homo sapiens, 312 h
# Method in brief: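 KARPAS-422 cells were treated with PRC2 inhibitors over 9 three-fold dilutions from 10 μM top (0.5% DMSO, duplicates) in RPMI-1640 with 15% FBS at 37 °C. Every 3–4 days cells were counted and reseeded at 1×10^4/well with fresh compound. Viability was read by CellTiter-Glo luminescence on day 13.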
# T1 sequence (O75530 whole entry): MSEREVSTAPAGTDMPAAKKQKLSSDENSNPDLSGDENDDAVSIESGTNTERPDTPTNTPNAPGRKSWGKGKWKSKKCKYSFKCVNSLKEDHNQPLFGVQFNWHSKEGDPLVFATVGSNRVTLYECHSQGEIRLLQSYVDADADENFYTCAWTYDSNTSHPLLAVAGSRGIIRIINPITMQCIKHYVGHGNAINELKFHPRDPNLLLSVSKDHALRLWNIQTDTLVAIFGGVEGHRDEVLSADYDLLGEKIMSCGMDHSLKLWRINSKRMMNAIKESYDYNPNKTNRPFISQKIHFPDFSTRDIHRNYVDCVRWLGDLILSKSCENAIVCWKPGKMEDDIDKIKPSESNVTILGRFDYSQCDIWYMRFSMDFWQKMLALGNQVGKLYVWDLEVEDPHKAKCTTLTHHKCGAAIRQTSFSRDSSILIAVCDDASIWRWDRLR
smiles,measurement,setting,value
Fc1ccc2c(c1CNc1ncc(-c3cc(Cl)cn4cc(C(F)(F)F)nc34)c3nncn13)CCO2,IC50,[1],0.0096 µM
same,IC50,[2],0.089 µM
Fc1ccc2c(c1CNc1ncc(-c3cccn4c(F)cnc34)c3nncn13)CCO2,IC50,[1],0.0092 µM
same,IC50,[2],0.0035 µM
"O=S1(=O)C=c2cc(-c3cnc(NCc4c(F)ccc5c4[C@H]4C[C@H]4O5)n4cnnc34)ccc2=C1F [1-fluoro-5-(5-((((1aR,6bR)-5-fluoro-1a,6b-dihydro-1H-cyclopropa[b]benzofuran-6-yl)methyl)amino)-[1,2,4]triazolo[4,3-c]pyrimidin-8-yl)benzo[c]thiophene 2,2-dioxide]",IC50,[1],0.186 µM
same,IC50,[2],0.075 µM
"CC1=C(Cl)c2cc(-c3cnc(NCc4c(F)ccc5c4[C@H]4C[C@H]4O5)n4cnnc34)ccc2S1(=O)=O [3-chloro-5-(5-((((1aR,6bR)-5-fluoro-1a,6b-dihydro-1H-cyclopropa[b]benzofuran-6-yl)methyl)amino)-[1,2,4]triazolo[4,3-c]pyrimidin-8-yl)-2-methylbenzo[b]thiophene 1,1-dioxide]",IC50,[1],0.011 µM
same,IC50,[2],0.127 µM
"CC1=Cc2cc(-c3cnc(NCc4c(F)ccc5c4CCO5)n4cnnc34)cc(Cl)c2S1(=O)=O [7-chloro-5-(5-(((5-fluoro-2,3-dihydrobenzofuran-4-yl)methyl)amino)-[1,2,4]triazolo[4,3-c]pyrimidin-8-yl)-2-methylbenzo[b]thiophene 1,1-dioxide]",IC50,[1],0.0039 µM
same,IC50,[2],0.026 µM
"Fc1ccc2c(c1CNc1ncc(C3=CC=CN4CCN=C34)c3nncn13)CCO2 [8-(2,3-dihydroimidazo[1,2-a]pyridin-8-yl)-N-((5-fluoro-2,3-dihydrobenzofuran-4-yl)methyl)-[1,2,4]triazolo[4,3-c]pyrimidin-5-amine]",IC50,[1],0.0052 µM
"Cc1ccc(-c2cnc(NCc3c(F)ccc4c3CCO4)n3cnnc23)c2ncc(C(=O)O)n12 [8-(5-(((5-fluoro-2,3-dihydrobenzofuran-4-yl)methyl)amino)-[1,2,4]triazolo[4,3-c]pyrimidin-8-yl)-5-methylimidazo[1,2-a]pyridine-3-carboxylic acid]",IC50,[1],0.0054 µM
same,IC50,[2],0.004 µM
"O=C(O)c1cnc2c(-c3cnc(NCc4c(F)ccc5c4CCO5)n4cnnc34)cccn12 [8-(5-(((5-fluoro-2,3-dihydrobenzofuran-4-yl)methyl)amino)-[1,2,4]triazolo[4,3-c]pyrimidin-8-yl)imidazo[1,2-a]pyridine-3-carboxylic acid]",IC50,[1],0.0051 µM
same,IC50,[2],0.329 µM
"CCOC(=O)c1c(O)nc2c(-c3cnc(NCc4c(F)ccc5c4CCO5)n4cnnc34)cc(F)cn12 [Ethyl 6-fluoro-8-(5-(((5-fluoro-2,3-dihydrobenzofuran-4-yl)methyl)amino)-[1,2,4]triazolo[4,3-c]pyrimidin-8-yl)-2-hydroxyimidazo[1,2-a]pyridine-3-carboxylate]",IC50,[1],0.0912 µM
same,IC50,[2],0.091 µM
"CCOC(=O)c1c(C)nc2c(-c3cnc(NCc4c(F)ccc5c4CCO5)n4cnnc34)cc(F)cn12 [Ethyl 6-fluoro-8-(5-(((5-fluoro-2,3-dihydrobenzofuran-4-yl)methyl)amino)-[1,2,4]triazolo[4,3-c]pyrimidin-8-yl)-2-methylimidazo[1,2-a]pyridine-3-carboxylate]",IC50,[1],0.0452 µM
same,IC50,[2],0.087 µM
"CCOC(=O)c1cnc2c(-c3cnc(NCc4c(F)ccc5c4CCO5)n4cnnc34)cc(F)cn12 [Ethyl 6-fluoro-8-(5-(((5-fluoro-2,3-dihydrobenzofuran-4-yl)methyl)amino)-[1,2,4]triazolo[4,3-c]pyrimidin-8-yl)imidazo[1,2-a]pyridine-3-carboxylate]",IC50,[1],0.0221 µM
same,IC50,[2],0.047 µM
"CCOC(=O)c1c(C(F)(F)F)nc2c(-c3cnc(NCc4c(F)ccc5c4CCO5)n4cnnc34)cccn12 [Ethyl 8-(5-(((5-fluoro-2,3-dihydrobenzofuran-4-yl)methyl)amino)-[1,2,4]triazolo[4,3-c]pyrimidin-8-yl)-2-(trifluoromethyl)imidazo[1,2-a]pyridine-3-carboxylate]",IC50,[1],0.029 µM
same,IC50,[2],0.202 µM
"CCOC(=O)c1c(O)nc2c(-c3cnc(NCc4c(F)ccc5c4CCO5)n4cnnc34)cccn12 [Ethyl 8-(5-(((5-fluoro-2,3-dihydrobenzofuran-4-yl)methyl)amino)-[1,2,4]triazolo[4,3-c]pyrimidin-8-yl)-2-hydroxyimidazo[1,2-a]pyridine-3-carboxylate]",IC50,[1],0.0221 µM
same,IC50,[2],0.068 µM
"Cc1ccc(-c2cnc(NCc3c(F)ccc4c3CCO4)n3cnnc23)c2ncc(F)n12 [N-((5-fluoro-2,3-dihydrobenzofuran-4-yl)methyl)-8-(3-fluoro-5-methylimidazo[1,2-a]pyridin-8-yl)-[1,2,4]triazolo[4,3-c]pyrimidin-5-amine]",IC50,[1],0.0058 µM
same,IC50,[2],0.0061 µM
"Fc1ccc2c(c1CNc1ncc(-c3c(C(F)(F)F)ccc4nsnc34)c3nncn13)CCO2 [N-((5-fluoro-2,3-dihydrobenzofuran-4-yl)methyl)-8-(5-(trifluoromethyl)benzo[c][1,2,5]thiadiazol-4-yl)-[1,2,4]triazolo[4,3-c]pyrimidin-5-amine]",IC50,[1],0.0464 µM
same,IC50,[2],0.17 µM
"Fc1ccc2c(c1CNc1ncc(-c3ccc(N4CCOCC4)n4ncnc34)c3nncn13)CCO2 [N-((5-fluoro-2,3-dihydrobenzofuran-4-yl)methyl)-8-(5-morpholino-[1,2,4]triazolo[1,5-a]pyridin-8-yl)-[1,2,4]triazolo[4,3-c]pyrimidin-5-amine]",IC50,[2],0.0011 µM
same,IC50,[3],0.0007 µM
"Cc1c(F)cc(-c2cnc(NCc3c(F)ccc4c3CCO4)n3cnnc23)c2ncnn12 [N-((5-fluoro-2,3-dihydrobenzofuran-4-yl)methyl)-8-(6-fluoro-5-methyl-[1,2,4]triazolo[1,5-a]pyridin-8-yl)-[1,2,4]triazolo[4,3-c]pyrimidin-5-amine]",IC50,[2],0.0036 µM
same,IC50,[3],0.0047 µM
"COc1cc(-c2cnc(NCc3c(F)ccc4c3CCO4)n3cnnc23)c2ncnn2c1 [N-((5-fluoro-2,3-dihydrobenzofuran-4-yl)methyl)-8-(6-methoxy-[1,2,4]triazolo[1,5-a]pyridin-8-yl)-[1,2,4]triazolo[4,3-c]pyrimidin-5-amine]",IC50,[2],0.0012 µM
same,IC50,[3],0.0017 µM
"Cc1cc(-c2cnc(NCc3c(F)ccc4c3CCO4)n3cnnc23)c2nc(C(F)(F)F)cn2c1 [N-((5-fluoro-2,3-dihydrobenzofuran-4-yl)methyl)-8-(6-methyl-2-(trifluoromethyl)imidazo[1,2-a]pyridin-8-yl)-[1,2,4]triazolo[4,3-c]pyrimidin-5-amine]",IC50,[1],0.0157 µM
same,IC50,[2],0.041 µM
"Fc1ccc2c(c1CNc1ncc(-c3cnc4nccn4c3)c3nncn13)CCO2 [N-((5-fluoro-2,3-dihydrobenzofuran-4-yl)methyl)-8-(imidazo[1,2-a]pyrimidin-6-yl)-[1,2,4]triazolo[4,3-c]pyrimidin-5-amine]",IC50,[1],0.0049 µM
same,IC50,[2],0.0129 µM
"CC(=O)NCc1cnc2c(-c3cnc(NCc4c(F)ccc5c4CCO5)n4cnnc34)ccc(C)n12 [N-((8-(5-(((5-fluoro-2,3-dihydrobenzofuran-4-yl)methyl)amino)-[1,2,4]triazolo[4,3-c]pyrimidin-8-yl)-5-methylimidazo[1,2-a]pyridin-3-yl)methyl)acetamide]",IC50,[2],0.0024 µM
same,IC50,[3],0.0032 µM
"Cc1ccc(-c2cnc(NCc3c(F)ccc4c3[C@H]3C[C@H]3O4)n3cnnc23)c2ncnn12 [N-(((1aR,6bR)-5-fluoro-1a,6b-dihydro-1H-cyclopropa[b]benzofuran-6-yl)methyl)-8-(5-methyl-[1,2,4]triazolo[1,5-a]pyridin-8-yl)-[1,2,4]triazolo[4,3-c]pyrimidin-5-amine]",IC50,[2],0.0024 µM
same,IC50,[3],0.0044 µM
"Cc1ccc(-c2cnc(NCc3c(F)ccc4c3[C@H]3C[C@H]3O4)n3cnnc23)c2nccn12 [N-(((1aR,6bR)-5-fluoro-1a,6b-dihydro-1H-cyclopropa[b]benzofuran-6-yl)methyl)-8-(5-methylimidazo[1,2-a]pyridin-8-yl)-[1,2,4]triazolo[4,3-c]pyrimidin-5-amine]",IC50,[2],0.0012 µM
same,IC50,[3],0.0009 µM

# Source: patent publication US12583870B2, “Azaheteroaryl compound and application thereof” (SHANGHAI BLUERAY BIOPHARMA CO., LTD., priority 2019, dated 2026)
